Laboratory results reported in PMC4730870 (Journal of natural products, 2015).

Tested on: peritoneal macrophages
Experiment: In vitro mammalian toxicity, MTT method
Type: cell-based, BALB/c mice
Settings: CC50 against macrophages/IC50 against amastigotes

## C=CCc1ccc(Oc2cc([C@H](O)C=C)cc(OC)c2O)c(OC)c1 [Compound 3, 1-[(7R)-Hydroxy-8-propenyl]-3-[3′-methoxy-1′-(8′-propenyl)-phenoxy]-4-hydroxy-5-methoxybenzene]
  SI selectivity index (CC50 mammalian cells/IC50 Leishmania amastigotes): >2.9
